Among the test systems are COLO 205 colon; MDA-MB-231 breast; RXF 393 renal; SW-620 colon; SK-MEL-5 melanoma; A549 NSCLC; CAKI-1 renal; CCRF-CEM leukemia; SK-MEL-2 melanoma; TK-10 renal.
What all share (assay): NCI-60 cell line screen, 48 h

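Exposure lasted 48 hours, with cells grown in 96-well plates and compounds tested at five concentrations. TGI: total growth inhibition.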

Turning to `CC1(C)OCC2OC3([C@@H]4OC(C)(C)O[C@H]4CO)OC(C)(C)OC3C2O1` (stereo partly drawn), the TGI in the test with COLO 205 colon, with MDA-MB-231 breast, in the test with RXF 393 renal, with SW-620 colon, in the test on SK-MEL-5 melanoma and in the test with A549 NSCLC was greater than 100 µM in each case. Further, the TGI in the test on CAKI-1 renal, in the test with CCRF-CEM leukemia and in the test on SK-MEL-2 melanoma was greater than 100 µM throughout.
For `CN1C(=O)N(C)C(O)C(Cl)(Br)C1=O` (stereo not drawn), the TGI in the test on COLO 205 colon, in the test with MDA-MB-231 breast, with RXF 393 renal, in the test with SW-620 colon, in the test on SK-MEL-5 melanoma and with A549 NSCLC was greater than 100 µM in each case. In addition, the TGI in the test with CAKI-1 renal, in the test with CCRF-CEM leukemia, in the test on SK-MEL-2 melanoma and in the test with TK-10 renal was greater than 100 µM throughout.
Take `O=P(O)(O)c1ccccc1Oc1ccccc1`: the TGI with COLO 205 colon, in the test with MDA-MB-231 breast, in the test on RXF 393 renal, in the test on SW-620 colon, in the test on SK-MEL-5 melanoma and with A549 NSCLC was greater than 100 µM each time. Further, the TGI in the test on CAKI-1 renal, in the test with CCRF-CEM leukemia, with SK-MEL-2 melanoma and with TK-10 renal was greater than 100 µM in each case.
In the case of `O=c1nc2c(c(-c3ccc(Br)cc3)[nH]1)COC/C2=C\c1ccc(Br)cc1`, the TGI with COLO 205 colon, in the test on MDA-MB-231 breast, in the test on RXF 393 renal, in the test on SW-620 colon, in the test on SK-MEL-5 melanoma and in the test on CAKI-1 renal was greater than 50 µM each time. Also, the TGI with CCRF-CEM leukemia, with SK-MEL-2 melanoma and with TK-10 renal was greater than 50 µM each time.
For the molecule `COc1ccc(-c2c3c(n(C4OC(CO)C(O)C(O)C4O)c(=S)c2C#N)CCC3)cc1` (stereo not drawn), the TGI in the test with COLO 205 colon was greater than 100 µM; in the test with MDA-MB-231 breast, greater than 100 µM; in the test with RXF 393 renal it was 63.6 µM; with SW-620 colon, greater than 100 µM; in the test on SK-MEL-5 melanoma, 38.8 µM; in the test with A549 NSCLC, greater than 100 µM. Moreover, the TGI with CAKI-1 renal, with CCRF-CEM leukemia, with SK-MEL-2 melanoma and in the test on TK-10 renal was greater than 100 µM in each case.
With `Cc1[nH]c(=O)nc(NCCNCCO)c1C(=O)Nc1cccc2cc3ccccc3cc12`, the TGI in the test with COLO 205 colon, in the test with MDA-MB-231 breast, in the test on RXF 393 renal, in the test with SW-620 colon, in the test with SK-MEL-5 melanoma and in the test on A549 NSCLC was greater than 100 µM each time. For the same molecule, the TGI with CAKI-1 renal, with CCRF-CEM leukemia, with SK-MEL-2 melanoma and with TK-10 renal was greater than 100 µM in each case.
As for `O=[N+]([O-])c1ccc(NC(=S)N=Nc2c(O)[nH]c3ccc([N+](=O)[O-])cc23)cc1`, the TGI in the test on COLO 205 colon is greater than 100 µM; in the test with MDA-MB-231 breast it was 45 µM; in the test on RXF 393 renal, 37.1 µM; with SW-620 colon, greater than 100 µM; with SK-MEL-5 melanoma, 30.7 µM; in the test on A549 NSCLC, 48.1 µM. The TGI was 43.2 µM in the test with CAKI-1 renal, 60.4 µM in the test with CCRF-CEM leukemia, 35.8 µM with SK-MEL-2 melanoma and 56.7 µM with TK-10 renal.
As to `COc1ccccc1C1Nn2c(nc3ccccc3c2=O)N1c1ccc(C)cc1` (stereo not drawn), the TGI was found to be 21.2 µM in the test with COLO 205 colon; 18.3 µM with MDA-MB-231 breast; 24 µM in the test on RXF 393 renal; 18.2 µM with SW-620 colon; 22.5 µM in the test on SK-MEL-5 melanoma; 19.7 µM with A549 NSCLC. Further, the TGI with CAKI-1 renal came to 24.1 µM; in the test on CCRF-CEM leukemia, 24.7 µM; in the test on SK-MEL-2 melanoma, 25.3 µM; in the test with TK-10 renal it was 22.7 µM.
Turning to `CC1C(NNc2ccccc2)Oc2cc3c(cc2C1c1ccccc1O)OCO3` (stereo not drawn), the TGI in the test on COLO 205 colon turned out to be 24.5 µM; in the test on MDA-MB-231 breast, 28.7 µM; with RXF 393 renal, 45.9 µM; with SW-620 colon, 28.6 µM; in the test on SK-MEL-5 melanoma, 24.1 µM; in the test with A549 NSCLC it was 15.2 µM. For the same molecule, the TGI in the test on CAKI-1 renal turned out to be 13.7 µM; in the test with CCRF-CEM leukemia, 13 µM; in the test with SK-MEL-2 melanoma, 25.6 µM; in the test on TK-10 renal, 18.3 µM.
For `N#C/C(=C/n1c(=S)[nH]c2ccc([N+](=O)[O-])cc21)C(N)=O`, the TGI with COLO 205 colon, in the test with MDA-MB-231 breast, in the test with RXF 393 renal, in the test with SW-620 colon, in the test on SK-MEL-5 melanoma and in the test with A549 NSCLC was greater than 100 µM in each case. Further, the TGI in the test with CAKI-1 renal, in the test with CCRF-CEM leukemia, in the test with SK-MEL-2 melanoma and with TK-10 renal was greater than 100 µM in each case.
On to `Cn1c(=O)c2c(nc3n(Cc4ccccc4)c(=O)c(NCCCBr)cn23)n(C)c1=O`, for which the TGI in the test with COLO 205 colon, with MDA-MB-231 breast, in the test with RXF 393 renal, with SW-620 colon, in the test on SK-MEL-5 melanoma and in the test on A549 NSCLC was greater than 100 µM throughout. Also, the TGI in the test with CAKI-1 renal, in the test on CCRF-CEM leukemia, in the test with SK-MEL-2 melanoma and in the test on TK-10 renal was greater than 100 µM in each case.
Turning to `Cc1cc2c(O)c(c1)CN(CC(=O)O)Cc1cc(C)cc(c1O)CN(CC(=O)O)Cc1cc(C)cc(c1O)CN(CC(=O)O)C2`, the TGI with COLO 205 colon, in the test on MDA-MB-231 breast, in the test on RXF 393 renal, in the test with SW-620 colon, in the test with SK-MEL-5 melanoma and with A549 NSCLC was greater than 100 µM each time. The TGI in the test with CAKI-1 renal, in the test with CCRF-CEM leukemia, in the test with SK-MEL-2 melanoma and in the test with TK-10 renal was greater than 100 µM each time.
As to `CC(=O)OCC1OC(n2c(-c3ccccc3)c(N=Nc3ccccc3)c(C)c(C#N)c2=S)C(OC(C)=O)C(OC(C)=O)C1OC(C)=O` (stereo not drawn), the TGI with COLO 205 colon, with MDA-MB-231 breast, with RXF 393 renal, in the test on SW-620 colon, with SK-MEL-5 melanoma and in the test on A549 NSCLC was greater than 100 µM each time. The TGI in the test with CAKI-1 renal, in the test with CCRF-CEM leukemia, in the test with SK-MEL-2 melanoma and in the test with TK-10 renal was greater than 100 µM each time.
